Experimental data published in patent EP0876142B1, “TOPICAL DELIVERY OF DRUGS TO THE LOWER GASTROINTESTINAL TRACT” (Advanced Polymer Systems, Inc., priority 1996, dated 1997).

Test: In vitro release of hydrocortisone (modified USP dissolution apparatus)
Assay type: physicochemical
Conditions: after the first two hours
Experimental: The radioactively labelled hydrocortisone was entrapped in two steps using a 5% ethanolic solution at each step. Release of entrapped hydrocortisone at pH 7.5 was measured using a modified USP dissolution apparatus with a basket of 5 µm mesh and a stirring speed of 150 rpm. Sixty percent of the entrapped hydrocortisone was released in the first two hours with a further 15% released over the next six hours. The dissolution rate of free radioactively labelled hydrocortisone was also measured.

Question: With C[C@]12CCC(=O)C=C1CC[C@@H]1[C@@H]2[C@@H](O)C[C@@]2(C)[C@H]1CC[C@]2(O)C(=O)CO [free hydrocortisone, hydrocortisone] as the compound, how does the total dissolution read?
Answer: total dissolution occurred in another six hours
